Experimental data reported in ChEMBL document CHEMBL3639015, “Bicyclic compound or salt thereof” (2014).

These compounds were tested against Heat shock protein HSP 90-alpha (Homo sapiens, UniProt P07900) (assay: AlphaScreen Competitive Assay: HSP90-binding activity was determined by an AlphaScreen competitive assay system. The purified HSP90 solution was diluted with a binding buffer (50 mM Tris-HCl (pH 7.5), 150 mM NaCl, 0.1% Triton-X 100, 1 mM DTT, 0.1% BSA) and added to a 384-well plate (#3673, Corning Inc.) containing test substances. After reaction at room temperature for 2 hours, biotinylated geldanamycin was added thereto at a concentration of 40 nM/well and further reacted for 1 hour. Detection mix (20 mM HEPES-KOH (pH 7.5), 0.5% BSA, 0.04 mg/mL Nickel Chelate Acceptor beads, 0.04 mg/mL Streptavidin-coated Donor beads) (#6760619C, PerkinElmer, Inc.) was added to each well in an amount equal to the amount of the reaction solution and reacted at room temperature for 1 hour in the dark. Then, fluorescence intensity was measured using Multilabel Plate Reader EnVision (PerkinElmer, Inc.).).

`CCNc1cc(-c2nccc3c(-n4cnc(-c5cnn(C)c5)c4)cccc23)ccc1C(N)=O` and `Cn1cc(-c2cn(-c3cccc4c(-c5ccc(C(N)=O)c(NC6CCCCCC6)c5)nccc34)cn2)cn1` are within 1.5-fold of each other in IC50: 190 nM for the first, 270 nM for the second.

Compared with `NC(=O)c1ccc(-c2nccc3c(-c4cncc(N)c4)cccc23)cc1NC1CCC(O)CC1` (stereo not drawn), `CC(C)Cn1cc(-c2cn(-c3cccc4c(-c5ccc(C(N)=O)c(NC6CCC(O)CC6)c5)nccc34)cn2)cn1` (stereo not drawn) is 4.7-fold higher in IC50: 60 nM for the first, 280 nM for the second. The first is the more potent here.

Going from `NCC(=O)OC1CCC(Nc2cc(-c3nccc4c(-c5cnc6ccccc6c5)cccc34)ccc2C(N)=O)CC1` (stereo not drawn) to `CC(C)(C)Nc1cc(-c2cc(C(F)(F)F)nc3c(-n4cnc(-c5ccccc5)c4)cccc23)ccc1C(N)=O`, the IC50 rises from 450 nM to 3390 nM (7.5-fold). The first is the more potent here.

`Cn1cc(-c2cn(-c3cccc4c(-c5ccc(C(N)=O)c(NCC6CC6)c5)cc(C(F)(F)F)nc34)cn2)cn1` and `CCNc1cc(-c2cc(C(F)(F)F)nc3c(-n4cnc(-c5cnn(C(F)F)c5)c4)cccc23)ccc1C(N)=O` are within 1.5-fold of each other in IC50: 220 nM for the first, 230 nM for the second.
